Laboratory results from ChEMBL document CHEMBL1201862, “PubChem BioAssay data set” (2004).
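Briefly, cells in 96-well plates were exposed to five compound concentrations for 48 h, and endpoints were estimated by linear interpolation. The concentration for 50% growth inhibition is given as GI50.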 Activity calls are given as the source filed them. No stated cut-off is given here; in the data, active = GI50 up to about 1.1 µM and inactive = higher.

Legend:
Assay in all cases: inhibition of tumour cell growth, NCI panel, 48 h
CAKI-1 = system: CAKI-1
CCRF-CEM = system: CCRF-CEM
EKVX = system: EKVX
HCT-116 = system: HCT-116
K562 = system: K562
LOX IMVI = system: LOX IMVI
MOLT-4 = system: MOLT-4
Malme-3M = system: Malme-3M
NCI-H23 = system: NCI-H23
NCI-H522 = system: NCI-H522
OVCAR-8 = system: OVCAR-8
SF-539 = system: SF-539
SK-MEL-2 = system: SK-MEL-2
SN12C = system: SN12C
SNB-75 = system: SNB-75
TK-10 = system: TK-10
KM12 = system: KM12
U-251 = system: U-251
MCF7 = system: MCF7

| Compound | GI50 (CAKI-1) | GI50 (CCRF-CEM) | GI50 (EKVX) | GI50 (HCT-116) | GI50 (K562) | GI50 (LOX IMVI) | GI50 (MOLT-4) | GI50 (Malme-3M) | GI50 (NCI-H23) | GI50 (NCI-H522) | GI50 (OVCAR-8) | GI50 (SF-539) | GI50 (SK-MEL-2) | GI50 (SN12C) | GI50 (SNB-75) | GI50 (TK-10) | GI50 (KM12) | GI50 (U-251) | GI50 (MCF7) |
| --- | --- | --- | --- | --- | --- | --- | --- | --- | --- | --- | --- | --- | --- | --- | --- | --- | --- | --- | --- |
| CCOC(=O)c1ccc(/N=C\c2ccc(N(CCC#N)CCC#N)cc2)cc1 | > 100 µM (inactive) | 46.9 µM (inactive) | > 100 µM (inactive) | 48 µM (inactive) | 28.2 µM (inactive) | 44.2 µM (inactive) | 32.4 µM (inactive) | > 100 µM (inactive) | > 100 µM (inactive) | 49.5 µM (inactive) | 89.1 µM (inactive) | 45.5 µM (inactive) | > 100 µM (inactive) | > 100 µM (inactive) | 47.4 µM (inactive) | 39.6 µM (inactive) | – | – | – |
| CCCCCCCCCCNCCSSCc1ccc(Cl)cc1 | 2.18 µM (inactive) | 1.64 µM (inactive) | 3.06 µM (inactive) | 1.73 µM (inactive) | 1.24 µM (inactive) | 1.92 µM (inactive) | 0.439 µM (active) | 2.95 µM (inactive) | – | 1.61 µM (inactive) | 2.07 µM (inactive) | 1.95 µM (inactive) | 0.352 µM (active) | 1.91 µM (inactive) | 5.86 µM (inactive) | 2.18 µM (inactive) | 1.36 µM (inactive) | 3.27 µM (inactive) | – |
| O=C1CCCC/C1=C/C=C/c1ccccc1 | > 100 µM (inactive) | 34.6 µM (inactive) | – | 43.7 µM (inactive) | 32.4 µM (inactive) | 48.9 µM (inactive) | 26.9 µM (inactive) | 87.9 µM (inactive) | 51.4 µM (inactive) | 30.7 µM (inactive) | 84.1 µM (inactive) | > 100 µM (inactive) | > 100 µM (inactive) | > 100 µM (inactive) | 32.7 µM (inactive) | > 100 µM (inactive) | 42.2 µM (inactive) | 83 µM (inactive) | – |
| C[N+](C)(C)CC1CCC(C[N+](C)(C)C)C1=NO (centres undefined) | – | > 100 µM (inactive) | > 100 µM (inactive) | > 100 µM (inactive) | > 100 µM (inactive) | > 100 µM (inactive) | > 100 µM (inactive) | > 100 µM (inactive) | > 100 µM (inactive) | > 100 µM (inactive) | > 100 µM (inactive) | > 100 µM (inactive) | > 100 µM (inactive) | > 100 µM (inactive) | > 100 µM (inactive) | – | > 100 µM (inactive) | > 100 µM (inactive) | – |
| CC(=O)OCC1OC(n2c(=O)n(-c3ccccc3)c(=O)c3ccccc32)C(OC(C)=O)C(OC(C)=O)C1OC(C)=O (centres undefined) | > 100 µM (inactive) | 53.7 µM (inactive) | > 100 µM (inactive) | 96.6 µM (inactive) | > 100 µM (inactive) | > 100 µM (inactive) | > 100 µM (inactive) | > 100 µM (inactive) | > 100 µM (inactive) | > 100 µM (inactive) | > 100 µM (inactive) | > 100 µM (inactive) | > 100 µM (inactive) | > 100 µM (inactive) | > 100 µM (inactive) | > 100 µM (inactive) | > 100 µM (inactive) | > 100 µM (inactive) | – |
| COc1ccc(C(=O)C(CC2C(=O)CC(C)(C)C(C(=O)C(=O)Nc3c(C)cccc3C)C2=O)c2ccc(OC)cc2)cc1 (centres undefined) | > 100 µM (inactive) | > 100 µM (inactive) | > 100 µM (inactive) | > 100 µM (inactive) | – | > 100 µM (inactive) | > 100 µM (inactive) | – | > 100 µM (inactive) | > 100 µM (inactive) | > 100 µM (inactive) | > 100 µM (inactive) | > 100 µM (inactive) | > 100 µM (inactive) | > 100 µM (inactive) | > 100 µM (inactive) | > 100 µM (inactive) | > 100 µM (inactive) | > 100 µM (inactive) |
| Cn1c(=O)nc2n(-c3cccc(Cl)c3)c3ccccc3nc-2c1=O | 33.7 µM (inactive) | 19 µM (inactive) | 12 µM (inactive) | 13.8 µM (inactive) | 14.1 µM (inactive) | 18.7 µM (inactive) | 18.5 µM (inactive) | 3.5 µM (inactive) | 5.9 µM (inactive) | 15.1 µM (inactive) | 18 µM (inactive) | 16 µM (inactive) | 17.1 µM (inactive) | 12.8 µM (inactive) | 15.3 µM (inactive) | 17 µM (inactive) | 11.2 µM (inactive) | 15.3 µM (inactive) | – |
| CC[As](CC)SCC1OC(OC(C)=O)C(OC(C)=O)C(OC(C)=O)C1OC(C)=O (centres undefined) | 2.84 µM (inactive) | 3.05 µM (inactive) | 21.4 µM (inactive) | 17.1 µM (inactive) | 4.38 µM (inactive) | 15.2 µM (inactive) | 16.5 µM (inactive) | 3.53 µM (inactive) | 13.5 µM (inactive) | 1.75 µM (inactive) | 16 µM (inactive) | 13.1 µM (inactive) | 12.6 µM (inactive) | 14.4 µM (inactive) | 25.5 µM (inactive) | 16.6 µM (inactive) | 19.5 µM (inactive) | 12.8 µM (inactive) | – |
| CC(C)(C)C(=O)N1C(C(=O)O)Cc2ccccc2[C@@H]1Cc1ccccc1 (some centres undefined) | > 100 µM (inactive) | > 100 µM (inactive) | > 100 µM (inactive) | > 100 µM (inactive) | > 100 µM (inactive) | – | > 100 µM (inactive) | > 100 µM (inactive) | > 100 µM (inactive) | > 100 µM (inactive) | > 100 µM (inactive) | > 100 µM (inactive) | > 100 µM (inactive) | > 100 µM (inactive) | > 100 µM (inactive) | > 100 µM (inactive) | > 100 µM (inactive) | > 100 µM (inactive) | – |
| C/C(CC(=O)CCC(=O)Nc1cccc(C(F)(F)F)c1)=N\NC(=O)NN | > 100 µM (inactive) | > 100 µM (inactive) | > 100 µM (inactive) | > 100 µM (inactive) | > 100 µM (inactive) | – | > 100 µM (inactive) | > 100 µM (inactive) | > 100 µM (inactive) | > 100 µM (inactive) | > 100 µM (inactive) | > 100 µM (inactive) | > 100 µM (inactive) | > 100 µM (inactive) | > 100 µM (inactive) | > 100 µM (inactive) | > 100 µM (inactive) | > 100 µM (inactive) | – |
| O/N=C1/C(=C/c2ccc(Br)cc2)CCCC1C(NO)c1ccc(Br)cc1 (centres undefined) | – | 18 µM (inactive) | > 10 µM (inactive) | 16.5 µM (inactive) | > 100 µM (inactive) | 20.4 µM (inactive) | 8.32 µM (inactive) | 15.7 µM (inactive) | > 10 µM (inactive) | 16 µM (inactive) | 16.1 µM (inactive) | 22.4 µM (inactive) | 16.7 µM (inactive) | 12.4 µM (inactive) | 19.1 µM (inactive) | 18.3 µM (inactive) | 19.2 µM (inactive) | 18.9 µM (inactive) | – |
| COc1ccc(/C=C/c2nnc(S)[nH]2)cc1 | > 100 µM (inactive) | > 100 µM (inactive) | > 100 µM (inactive) | > 100 µM (inactive) | > 100 µM (inactive) | > 100 µM (inactive) | > 100 µM (inactive) | > 100 µM (inactive) | > 100 µM (inactive) | > 100 µM (inactive) | > 100 µM (inactive) | > 100 µM (inactive) | > 100 µM (inactive) | > 100 µM (inactive) | > 100 µM (inactive) | > 100 µM (inactive) | – | > 100 µM (inactive) | – |
| O=C(O[C@H]1[C@@H]2C=CO[C@@H](OC3OC(CO)C(O)C(O)C3O)[C@@H]2[C@@]2(CO)O[C@@H]12)c1ccc(O)c(O)c1 (some centres undefined) | > 100 µM (inactive) | > 100 µM (inactive) | > 100 µM (inactive) | – | > 100 µM (inactive) | > 100 µM (inactive) | > 100 µM (inactive) | > 100 µM (inactive) | > 100 µM (inactive) | > 100 µM (inactive) | > 100 µM (inactive) | > 100 µM (inactive) | > 100 µM (inactive) | > 100 µM (inactive) | > 100 µM (inactive) | > 100 µM (inactive) | > 100 µM (inactive) | > 100 µM (inactive) | – |
| CC(=O)NNc1nc(C)c(C(=O)/C=C/c2ccc(N(C)C)cc2)s1 | > 100 µM (inactive) | > 100 µM (inactive) | > 100 µM (inactive) | – | > 100 µM (inactive) | > 100 µM (inactive) | > 100 µM (inactive) | > 100 µM (inactive) | > 100 µM (inactive) | > 100 µM (inactive) | > 100 µM (inactive) | > 100 µM (inactive) | > 100 µM (inactive) | > 100 µM (inactive) | 79.8 µM (inactive) | > 100 µM (inactive) | > 100 µM (inactive) | > 100 µM (inactive) | – |
| COc1cc(C=O)c(-c2cc(OC)c(OC)cc2C=O)cc1OC | > 100 µM (inactive) | 30.1 µM (inactive) | > 100 µM (inactive) | 70.3 µM (inactive) | 36.7 µM (inactive) | 13.7 µM (inactive) | 50.6 µM (inactive) | > 100 µM (inactive) | 52.6 µM (inactive) | > 100 µM (inactive) | 91.4 µM (inactive) | > 100 µM (inactive) | 67 µM (inactive) | > 100 µM (inactive) | > 100 µM (inactive) | > 100 µM (inactive) | > 100 µM (inactive) | > 100 µM (inactive) | – |
| O=C1c2cn[nH]c2N=C(Nc2ccccc2)C1/N=C/c1ccc([N+](=O)[O-])cc1 (centres undefined) | – | > 10 µM (inactive) | > 10 µM (inactive) | > 10 µM (inactive) | > 10 µM (inactive) | > 10 µM (inactive) | > 10 µM (inactive) | > 10 µM (inactive) | > 10 µM (inactive) | > 10 µM (inactive) | > 10 µM (inactive) | > 10 µM (inactive) | – | > 10 µM (inactive) | > 10 µM (inactive) | > 10 µM (inactive) | > 10 µM (inactive) | > 10 µM (inactive) | > 10 µM (inactive) |
